Values quoted from earlier work in US20120252835A1, “STABLE TEMSIROLIMUS COMPOSITION AND PROCESS OF PREPARING SAME” (ASTRON RESEARCH LIMITED, priority 2011, published 2012).

Rapamycin, 42-[3-hydroxy-2-(hydroxymethyl)-2-methylpropanoate] [Temsirolimus]
Solubility in alcohols acceptable for parenteral administration (ethanol, propylene glycol, polyethylene glycol and the likes): soluble | Solubility in water (water): practically insoluble
